Results from ChEMBL document CHEMBL1143858, “Structure-based design and synthesis of novel macrocyclic pyrazolo[1,5-a] [1,3,5]triazine compounds as potent inhibitors of protein kinase CK2 and their anticancer activities” (Bioorg Med Chem Lett, 2008).

Tests used:
PC-3 = experiment: Inhibition of human PC3 cells by MTT assay; format: functional, cell-based
[1] = target: Casein kinase II subunit alpha (Zea mays, UniProt P28523); experiment: Inhibition of corn CK2
HCT-116 = experiment: Inhibition of human HCT116 cells by MTT assay; format: functional, cell-based

Chain of Casein kinase II subunit alpha (P28523 whole entry): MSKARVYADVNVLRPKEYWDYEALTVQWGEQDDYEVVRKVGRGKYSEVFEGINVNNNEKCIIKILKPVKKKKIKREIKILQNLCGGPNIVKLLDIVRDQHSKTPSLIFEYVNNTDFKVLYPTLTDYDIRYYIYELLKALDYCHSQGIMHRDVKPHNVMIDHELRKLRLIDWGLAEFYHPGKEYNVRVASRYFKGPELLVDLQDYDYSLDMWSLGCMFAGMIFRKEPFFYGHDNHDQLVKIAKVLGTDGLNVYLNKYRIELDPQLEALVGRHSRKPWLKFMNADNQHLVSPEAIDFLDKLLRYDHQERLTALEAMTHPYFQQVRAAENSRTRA

Row | Structure (SMILES) | IC50 (PC-3; Homo sapiens, PC-3) [nM] | Ki [1] [nM] | IC50 (HCT-116; Homo sapiens, HCT-116) [nM] | IC50 (PC-3; pc-3) [nM] | IC50 (HCT-116; hct-116) [nM]
1 | O=C1CCCCc2cnn3c(Nc4cccc(C(=O)N5CC(O)C5)c4)nc(nc23)Nc2cccc(c2)N1 | 600 | 3.6 | 330 | – | –
2 | CCN(CC)C1CN(C(=O)c2cccc(Nc3nc4nc5c(cnn35)CCCCC(=O)Nc3cccc(c3)N4)c2)C1 | 620 | 3.4 | 300 | – | –
3 | CN1CCC(N(C)C(=O)c2cccc(Nc3nc4nc5c(cnn35)CCCCC(=O)Nc3cccc(c3)N4)c2)C1 (stereo unspecified) | 120 | 2 | 83 | – | –
4 | CN(C)CCN(C)C(=O)c1cccc(Nc2nc3nc4c(cnn24)CCCCC(=O)Nc2cccc(c2)N3)c1 | 210 | 4 | 130 | – | –
5 | CN(C)CCNC(=O)c1cccc(Nc2nc3nc4c(cnn24)CCCCC(=O)Nc2cccc(c2)N3)c1 | 380 | 5.2 | 240 | – | –
6 | O=C1CCCCc2cnn3c(NC4CC4)nc(nc23)Nc2cccc(c2)N1 | – | – | – | 880 | 290

Now from value to molecule, other results behind:

Row | IC50 (PC-3; Homo sapiens, PC-3) [nM] | Ki [1] [nM] | IC50 (HCT-116; Homo sapiens, HCT-116) [nM] | Structure (SMILES) | IC50 (PC-3; pc-3) [nM] | IC50 (HCT-116; hct-116) [nM]
7 | 230 | 1.4 | 190 | CN(C)C1CCN(C(=O)c2cccc(Nc3nc4nc5c(cnn35)CCCCC(=O)Nc3cccc(c3)N4)c2)C1 (stereo unspecified) | – | –
8 | 140 | 2.2 | 130 | CCN(CC)C1CCN(C(=O)c2cccc(Nc3nc4nc5c(cnn35)CCCCC(=O)Nc3cccc(c3)N4)c2)C1 (stereo unspecified) | – | –
9 | 500 | 1.3 | 250 | CN1CCN(C(=O)c2cccc(Nc3nc4nc5c(cnn35)CCCCC(=O)Nc3cccc(c3)N4)c2)CC1 | – | –
10 | – | 1.4 | 180 | CN1CCC(N(C)C(=O)c2cccc(Nc3nc4nc5c(cnn35)CCCCC(=O)Nc3cccc(c3)N4)c2)CC1 | – | –
11 | 330 | 7.4 | 270 | CN1CC(NC(=O)c2cccc(Nc3nc4nc5c(cnn35)CCCCC(=O)Nc3cccc(c3)N4)c2)C1 | – | –
12 | 5100 | – | – | CC(=O)Nc1cccc(Nc2nc(NC3CC3)n3ncc(C#N)c3n2)c1 | – | –
13 | – | 0.8 | 440 | O=C1CCCCc2cnn3c(Nc4cccc(C(=O)N5CCNCC5)c4)nc(nc23)Nc2cccc(c2)N1 | – | –
14 | – | 2.4 | 150 | CCN(CC)CCN(C)C(=O)c1cccc(Nc2nc3nc4c(cnn24)CCCCC(=O)Nc2cccc(c2)N3)c1 | – | –
